Test systems include NCI-H522 lung; MDA-MB-231 breast; K-562 leukemia; MCF7 breast; A549 NSCLC; HS 578T breast; BT-549 breast; SNB-19 CNS; SN12C renal; TK-10 renal.
Common to all, as to experiment: NCI-60 cell line screen, 48 h

Structures are written as SMILES.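 These data come from cells grown in 96-well plates and exposed to compound for 48 hours at five concentrations. Here, GI50 denotes the concentration required for 50% inhibition of growth. TGI: total growth inhibition.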

With `COc1cccc2[nH]c(-c3ccccn3)nc12`, the TGI with NCI-H522 lung, with MDA-MB-231 breast, in the assay on K-562 leukemia, in the assay on MCF7 breast, with A549 NSCLC and with HS 578T breast was over 100 µM in each case. Moreover, the TGI in the assay on BT-549 breast, with SNB-19 CNS, with SN12C renal and in the assay with TK-10 renal was over 100 µM each time.
Take `COc1ccc(-c2c(-c3cc(OC)c4c(c3)OCO4)noc2N)cc1`: the TGI is 0.0239 µM with NCI-H522 lung; 16.9 µM in the assay on MDA-MB-231 breast; over 100 µM in the assay on K-562 leukemia; 28.5 µM with MCF7 breast; over 100 µM in the assay on A549 NSCLC; 49.6 µM with HS 578T breast. The TGI with BT-549 breast is 38.7 µM; in the assay with SNB-19 CNS it was over 100 µM; in the assay with SN12C renal, over 93 µM; with TK-10 renal, 49.7 µM. For the same compound, the GI50 in the assay on MDA-MB-231 breast is 0.181 µM; in the assay with K-562 leukemia, 0.0193 µM; with MCF7 breast, 0.028 µM; with A549 NSCLC, 0.0663 µM; in the assay with HS 578T breast it was 0.0302 µM; in the assay on BT-549 breast, 0.568 µM. Also, the GI50 is 0.0708 µM in the assay on SNB-19 CNS, 0.147 µM in the assay on SN12C renal and 10.4 µM with TK-10 renal.
Take `O=C(c1ccccc1)c1nc2ccc(C(F)(F)F)cc2[n+]([O-])c1C(F)(F)F`: the GI50 with NCI-H522 lung was 24.7 µM; with MDA-MB-231 breast, 45.1 µM; in the assay with K-562 leukemia, 18.2 µM; in the assay on MCF7 breast it was 36 µM; with A549 NSCLC it was 26 µM; in the assay with HS 578T breast, 52.6 µM. For the same compound, the GI50 in the assay on BT-549 breast is 31.5 µM; with SNB-19 CNS, 71.5 µM; in the assay on SN12C renal, 54 µM; with TK-10 renal, 37.5 µM. Moreover, the TGI was 79 µM in the assay with NCI-H522 lung; over 100 µM in the assay on MDA-MB-231 breast; over 100 µM in the assay with K-562 leukemia; over 100 µM with MCF7 breast; over 100 µM in the assay on A549 NSCLC; over 100 µM with HS 578T breast. Further, the TGI in the assay on BT-549 breast, with SNB-19 CNS, with SN12C renal and in the assay on TK-10 renal was over 100 µM throughout.
As for `O=C1/C(=C/c2ccccc2)CN(C(=O)OCc2ccccc2)C/C1=C\c1ccccc1`, the TGI in the assay with NCI-H522 lung was 18.5 µM; in the assay with MDA-MB-231 breast, 50.4 µM; with K-562 leukemia it was 15.4 µM; in the assay with MCF7 breast, 37.2 µM; with A549 NSCLC it was over 46.4 µM; in the assay on HS 578T breast, 10.1 µM. Further, the TGI in the assay with BT-549 breast was 33.2 µM; in the assay with SNB-19 CNS, over 46.4 µM; in the assay with SN12C renal, 22.7 µM; in the assay with TK-10 renal, over 46.2 µM. For the same compound, the GI50 with K-562 leukemia was 1.63 µM.
Turning to `COc1cnc2c(c1)C(=O)c1c-2n(CCCN2CCCC2)c(=O)c2cc(F)ccc12`, the GI50 in the assay with NCI-H522 lung was 0.0819 µM; in the assay on MDA-MB-231 breast it was 0.926 µM; in the assay with K-562 leukemia it was 0.263 µM; in the assay on MCF7 breast it was 0.0482 µM; in the assay on A549 NSCLC it was 0.0936 µM; in the assay on HS 578T breast, 1.69 µM. Besides, the GI50 was 0.85 µM in the assay on BT-549 breast, 0.24 µM in the assay with SNB-19 CNS, 0.214 µM in the assay with SN12C renal and 0.46 µM with TK-10 renal. The TGI stood at 1.23 µM with NCI-H522 lung; 2.96 µM in the assay with MDA-MB-231 breast; 1.55 µM in the assay with K-562 leukemia; 3.88 µM with MCF7 breast; 0.351 µM in the assay on A549 NSCLC; 13.5 µM in the assay on HS 578T breast. Besides, the TGI was 6.43 µM with BT-549 breast, 2.74 µM with SNB-19 CNS, 10 µM in the assay with SN12C renal and 2.13 µM with TK-10 renal.
For `CNC1C(O)C(OC2C(N)CC(N)C(OC3OC(C(C)O)C(O)C(O)C3N)C2O)OCC1(C)O` (stereo not given), the TGI in the assay with NCI-H522 lung, in the assay with MDA-MB-231 breast, in the assay on K-562 leukemia, in the assay on MCF7 breast, with A549 NSCLC and in the assay on HS 578T breast was over 100 µM in each case. Besides, the TGI with BT-549 breast, in the assay with SNB-19 CNS, with SN12C renal and in the assay with TK-10 renal was over 100 µM throughout.
As to `O=C(CCCCCCSc1nc(-c2ccc(Cl)cc2)cc(-c2ccc(Cl)cc2)n1)NO`, the GI50 was 0.97 µM with NCI-H522 lung; 2.15 µM with MDA-MB-231 breast; 1.65 µM with K-562 leukemia; 1.44 µM in the assay on MCF7 breast; 1.42 µM in the assay on A549 NSCLC; 3.23 µM with HS 578T breast. Also, the GI50 in the assay with BT-549 breast is 1.92 µM; with SNB-19 CNS it was 1.97 µM; in the assay on SN12C renal it was 1.6 µM; in the assay with TK-10 renal, 1.61 µM. Also, the TGI with NCI-H522 lung is 4.45 µM; in the assay with MDA-MB-231 breast, 13.3 µM; in the assay on K-562 leukemia, over 50 µM; with MCF7 breast, over 50 µM; with A549 NSCLC, 5.1 µM; in the assay on HS 578T breast, over 50 µM. Besides, the TGI in the assay with BT-549 breast was found to be 36.2 µM; with SNB-19 CNS it was 20.4 µM; in the assay on SN12C renal it was 6.24 µM; in the assay with TK-10 renal, 11.9 µM.
